According to US20050043534A1, “Modulators of ceramidase and methods of used based thereon” (priority 2001, published 2005):
Values joined by “and” are separate entries in the source; they are usually repeats but may differ in a detail not shown here. Identical values can stand only once.

Key:
[1] = tested on: MCF7 human breast carcinoma cells; test: MTT cell viability assay, MCF7 cells; type: cell-based; conditions: 18 hours treatment
Description: The cells were contained at 37° C. in a humidified atmosphere containing 5% CO2 overnight. On Day 2, the cells were treated with the compound of interest which was dissolved in 100% ethanol. […] The control is a sample without the compound of interest.

mitochondrial ceramidase = mitochondrial ceramidase (Rattus norvegicus, UniProt Q91XT9); test: mitochondrial ceramidase (mt-CDase) activity, radioactive assay or HPLC assay; type: biochemical
mitochondrial ceramidase, sequence (Q91XT9 whole entry): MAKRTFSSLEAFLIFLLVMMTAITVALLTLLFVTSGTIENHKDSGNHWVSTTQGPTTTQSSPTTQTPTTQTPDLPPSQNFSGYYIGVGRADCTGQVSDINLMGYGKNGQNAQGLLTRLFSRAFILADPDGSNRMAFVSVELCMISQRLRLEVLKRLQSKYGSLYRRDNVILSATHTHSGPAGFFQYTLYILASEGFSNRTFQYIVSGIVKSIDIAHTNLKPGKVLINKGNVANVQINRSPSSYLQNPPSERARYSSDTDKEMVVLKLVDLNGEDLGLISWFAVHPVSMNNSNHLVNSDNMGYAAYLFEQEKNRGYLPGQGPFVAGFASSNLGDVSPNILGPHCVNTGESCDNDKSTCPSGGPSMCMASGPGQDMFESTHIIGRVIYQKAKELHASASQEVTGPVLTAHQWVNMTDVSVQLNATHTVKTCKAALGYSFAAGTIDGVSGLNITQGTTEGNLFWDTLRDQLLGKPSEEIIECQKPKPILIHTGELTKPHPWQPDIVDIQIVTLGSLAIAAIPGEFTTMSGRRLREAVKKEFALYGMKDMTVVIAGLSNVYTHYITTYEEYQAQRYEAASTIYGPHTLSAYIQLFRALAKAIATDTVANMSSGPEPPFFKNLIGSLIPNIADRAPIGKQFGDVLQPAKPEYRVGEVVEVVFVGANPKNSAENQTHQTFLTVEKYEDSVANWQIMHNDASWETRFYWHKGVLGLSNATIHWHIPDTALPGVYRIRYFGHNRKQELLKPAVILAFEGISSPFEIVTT
Description: The enzymatic activity of mitochondrial ceramidase was determined by either one of the two following methods:
a. Radioactive assay: The mt-CDase activity was determined by measuring the release of radioactive fatty acid from tritiated ceramide ([^3H]-C16-Cer), labeled in the acyl chain. Briefly, organic solutions of ceramide and its analogues were initially mixed together, solvents were completely evaporated under nitrogen, then the dried lipids were dispersed in Triton-X 100 by sonication and vigorous vortexing. The reaction assay contained (in a final volume of 200 μl): enzyme (5-10 ng) and 10 nmoles of tritiated C16-ceramide (1×10^5 dpm) delivered in 100 μl of 1% Triton X-100 micelles in a glycine buffer pH 9.5 (200 mM).
b. HPLC-assay: The Mt-CDase activity was also determined by measuring the amount of sphingosine released. Basically the assay was initially the same as described above but using non-radioactive ceramide. The reaction was stopped with 800 μl of chloroform: methanol (2:1 v/v) mixture followed by the addition of phyto-sphingosine (0.5 nmoles) and dihydro-sphingosine (1 nmole) as internal standard and carrier, respectively. The reaction mix was then extracted with NaOH (50 μl, 1N), and the lower chloroform layer containing the sphingosine was further washed with water (100 μl) and dried. The released sphingosine was quantified as the ortho-phthaldehyde (OPA) derivatives as described (30). […] The solvent system was methyl alcohol: potassium phosphate buffer (5 mM), pH 7.0 (90:10 v/v) at a flow rate of 1 ml/min. […] Activity was determined relative to the phytosphingosine OPA peak.
The effects of various compounds of the invention which are stereochemical and structural analogues of ceramide and sphingosine on mt-CDase were investigated. […] Results were expressed as percent of the control ceramidase activity.

[2] = tested on: human embryonal kidney cells HEK-293; test: MTT cell viability assay, HEK-293 cells; type: cell-based; conditions: 18 hours treatment
Description: MCF7 human breast carcinoma cells (ATCC No. HTB-22) and human embryonal kidney cells HEK-293 (ATCC No. CRL-1573) were purchased from American Type Culture Collection.
To investigate the effect of the compound of interest on each of these cell lines, on Day 1, about 50 μL (about 5,000 cells) of the MCF7 or HEK-293 cells were plated down into 96-well plate which contains RPMI 1640 1× (MOD) media (purchased from Media Tech) containing L-glutamine and 10% fetal calf serum (purchased from Gibco). The cells were contained at 37° C. in a humidified atmosphere containing 5% CO2 overnight. On Day 2, the cells were treated with the compound of interest which was dissolved in 100% ethanol. To facilitate dissolution of the compound of interest, a 98% ethanol/2% dodecane can be used as the solvent instead of 100% ethanol. […] The cells were treated with the compound of interest for 18 hours after which the effect on cell viability was measured by MTT assay (Mossman, T. (1983) J. Immuno. Meth. 65, 55-63; and Berridge, M. V. and Tan, A. S. (1993) Archives of Biochemistry & Biophysics, 303, 474-482) as described below.
MTT Assay: • (1) Add to each well 25 μL of MTT stock solution (5 mg/mL in PBS); • (2) Incubate for 5 hours; • (3) Add 100 μL of lysing buffer (20% SDS (w/v), 50% N,N-Dimethyl formamide (v/v)) and stand overnight; • (4) read plate at 595 nm.

[3] = tested on: mouse fibroblast cells, L929; test: TNFα-induced PGE2 release from L929 cells; type: cell-based; conditions: preliminary data
Description: Interleukin-1 is a major inducer of inflammation and TNF is an important regulator of the reaction. Both cytokines can activate ceramidase, and thus inhibiting the activity of ceramidase can result in an anti-inflammatory effect. This may involve the prevention of the formation of sphingosine and sphingosine phosphate which have pro-inflammatory effects. Also, inhibition of ceramidase may prevent the hyperproliferation of immune cells that are important for inflammation. […] The release of PGE2 is also shown to be inhibited by D-(N-myristolyamino)-1-phenyl-1-propanol), D-MAPP, which is an inhibitor of one of the ceramidase. This observation may be important for inhibiting inflammatory reactions that occur in conditions, such as but not limited to rheumatoid arthritis. Thus, it is possible to treat or prevent inflammation by regulating the level of cellular ceramide using the method of the invention. As discussed above, ceramide level can be increased by administering compounds of the present invention that can inhibit mitochondrial ceramidase.

melting point [°C] | hydrolysis by mt-CDase (substrate or not, in words) (mitochondrial ceramidase) | Estimated IC50 (mole %) (mitochondrial ceramidase; Table 1, ceramide analogues, hydrolysis of D-erythro-C16 or C18-ceramide at 0.625 mole % (50 μM)) | effect on mt-CDase activity (in words) (mitochondrial ceramidase; concentrations as stated at the place) | inhibition at 50 µM (mitochondrial ceramidase; inhibitor at 0.625 mole % (50 μM), read-out: inhibition (maximal inhibition) of mt-CDase activity) [%] | IC50 (mitochondrial ceramidase; substrate D-erythro-ceramide 50 μM) [µM] | IC50 (50% inhibition of mt-CDase activity) (mitochondrial ceramidase; substrate D-erythro-ceramide 0.625 mole %) | type of inhibition (double reciprocal analysis: Km increased, Vmax unchanged) (mitochondrial ceramidase; varying D-erythro-ceramide concentration) | Structure (SMILES) | effect on cell growth and proliferation (in words) [1] | effect on cell growth and proliferation (in words) [2] | release of PGE2 [3]
105 to 106 | not a substrate | 0.33 | potent inhibitor | 75 | 25 | 0.33 mole % and 0.31 mole % | competitive inhibitor | CCCCCCCCCCCCC/C=C/[C@@H](O)[C@H](CO)NC(=O)NCCCCCCCCCCCCCCCC [Compound C16-urea-Cer, (2S, 3R,4E)-N-[2-(1,3-Dihydroxy-4E-octadecene)]-N′-hexadecane-urea] | potent inhibitor of cell growth and proliferation | potent inhibitor of cell growth and proliferation | –
– | – | – | – | – | – | – | – | CCCCCCCCCCCCCC(=O)NC(C)C(O)c1ccccc1 [D-MAPP] | – | – | inhibited
